Results from patent US10077237B2 (Sanofi, priority 2013, dated 2018).
pEC50: −log10 of the molar value. Several values for one entry are separate records, joined by “and”; a condition that tells them apart may be missing. Identical values can stand only once. Counter-ions that a name gives are not always drawn.

Target: T1, recombinant human AMPK complex, containing α2β1γ2 (Homo sapiens, UniProt P54646+Q9Y478)
T1 construct: hsAMPKα2-552-His, hsAMPKβ1-2-270 and hsAMPKγ-2-569 respectively; hsAMPKβ1-2-270; hsAMPKγ-2-569; His (C); made in house; host or cells: Spodoptera frugiperda Sf21 (baculovirus)
T1 sequence (P54646 2-552): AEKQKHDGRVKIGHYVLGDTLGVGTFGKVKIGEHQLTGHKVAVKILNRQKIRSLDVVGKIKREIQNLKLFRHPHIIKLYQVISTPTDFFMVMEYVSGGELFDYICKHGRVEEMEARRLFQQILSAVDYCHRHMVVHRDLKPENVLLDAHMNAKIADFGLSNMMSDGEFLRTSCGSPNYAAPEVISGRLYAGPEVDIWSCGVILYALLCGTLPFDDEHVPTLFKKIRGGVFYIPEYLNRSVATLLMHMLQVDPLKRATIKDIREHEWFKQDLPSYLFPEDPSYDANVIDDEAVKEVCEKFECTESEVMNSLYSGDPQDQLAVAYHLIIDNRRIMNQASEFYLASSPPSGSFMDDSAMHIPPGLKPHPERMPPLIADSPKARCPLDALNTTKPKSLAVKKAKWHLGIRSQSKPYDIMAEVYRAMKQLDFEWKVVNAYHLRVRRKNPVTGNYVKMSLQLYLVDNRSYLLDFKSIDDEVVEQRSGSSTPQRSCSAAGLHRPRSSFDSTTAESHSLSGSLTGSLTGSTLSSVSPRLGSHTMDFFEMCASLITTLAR
T1 sequence (Q9Y478 2-270): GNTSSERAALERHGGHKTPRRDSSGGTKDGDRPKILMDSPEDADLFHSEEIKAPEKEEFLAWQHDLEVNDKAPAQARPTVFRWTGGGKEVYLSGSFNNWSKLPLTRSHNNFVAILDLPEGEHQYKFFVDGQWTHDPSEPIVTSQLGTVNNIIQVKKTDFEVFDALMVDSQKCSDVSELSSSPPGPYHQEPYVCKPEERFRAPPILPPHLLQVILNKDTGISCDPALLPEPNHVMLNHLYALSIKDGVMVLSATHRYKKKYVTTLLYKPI
T1 sequence (Q9UGJ0 2-569 partner limits assumed): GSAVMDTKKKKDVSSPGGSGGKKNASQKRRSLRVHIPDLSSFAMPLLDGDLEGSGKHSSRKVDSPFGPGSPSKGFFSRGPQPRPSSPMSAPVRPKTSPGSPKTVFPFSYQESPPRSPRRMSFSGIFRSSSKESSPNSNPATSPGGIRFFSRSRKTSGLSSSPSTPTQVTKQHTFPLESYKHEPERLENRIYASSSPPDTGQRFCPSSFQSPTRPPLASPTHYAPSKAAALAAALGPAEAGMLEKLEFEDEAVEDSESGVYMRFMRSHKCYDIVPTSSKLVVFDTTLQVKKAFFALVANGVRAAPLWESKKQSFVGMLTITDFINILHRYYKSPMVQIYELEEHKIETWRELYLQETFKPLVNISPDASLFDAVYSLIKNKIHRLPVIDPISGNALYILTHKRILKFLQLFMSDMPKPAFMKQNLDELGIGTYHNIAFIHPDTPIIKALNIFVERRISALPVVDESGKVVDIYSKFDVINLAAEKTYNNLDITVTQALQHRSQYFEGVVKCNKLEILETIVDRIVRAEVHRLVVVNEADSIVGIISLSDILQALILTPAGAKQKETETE
Assay: AMPK in vitro activation assay (HTRF)
Type: biochemical
Details: for pEC50: HTRF, recombinant human α2β1γ2 AMPK, 200 μM ATP, biotinylated ACC-CREBp peptide, repeat determinations on separate lines
In short: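 HTRF phosphorylation read-out (Eu-cryptate anti-pS133-CREB, streptavidin-XL665) after a 45 min, 37° C kinase step. This step was initiated by a solution with 200 μM ATP and 2 or 0.08 μM biotinylated ACC-CREBp peptide. Beforehand, compound sat 30 min at room temperature with baculovirus/Sf21 α2β1γ2 in pH 7.0 HEPES buffer; EC50 derived from activation over basal.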

[1] = potentiation of AMPK activity as percent over the basal signal (without compound)

| Compound | pEC50 | α2β1γ2 AMPK Emax [1] | Emax [1] [%] |
| --- | --- | --- | --- |
| COc1cc(C(O)=C2C(=O)Nc3cc(Cl)c(-c4ccc(C5CCN(C)C5)cc4)cc32)on1 (stereo not drawn) [Compound 133, 6-chloro-3-[hydroxy-(3-methoxyisoxazol-5-yl)methylene]-5-[4-(1-methylpyrrolidin-3-yl)phenyl]indolin-2-one hydrochloride] | 7.85 |  | 397 |
| Cc1cc(C(O)=C2C(=O)Nc3cc(Cl)c(-c4ccc(N5CCOCC5)cc4)cc32)on1 [Compound 14, 6-Chloro-3-[1-hydroxy-1-(3-methyl-isoxazol-5-yl)-methylidene]-5-(4-morpholin-4-yl-phenyl)-1,3-dihydro-indol-2-one] | 7.42 |  | 283 |
| COc1cc(C(O)=C2C(=O)Nc3cc(Cl)c(-c4ccc(N5CCC5)cc4)cc32)on1 [Compound 162, 5-[4-(azetidin-1-yl)phenyl]6-chloro-3-[hydroxy-(3-methoxyisoxazol-5-yl)methylene]indolin-2-one] | 9.15 |  | 191 |
| CN1CCC(c2ccc(-c3cc4c(cc3Cl)NC(=O)C4=C(O)c3cc(F)cc(F)c3)cc2)C1 (stereo not drawn) [Compound 150, 6-chloro-3-[(3,5-difluorophenyl)hydroxy-methylene]-5-[4-(1-methylpyrrolidin-3-yl)phenyl]indolin-2-one hydrochloride] | 7.85 |  | 137 |
| COc1ccc(-c2cc3c(cc2Cl)NC(=O)C3=C(O)c2cc(C)no2)cc1F [Compound 55, 6-Chloro-5-(3-fluoro-4-methoxy-phenyl)-3-[1-hydroxy-1-(3-methyl-isoxazol-5-yl)-methylidene]-1,3-dihydro-indol-2-one] | 6.37 |  | 174 |
| O=C1Nc2cc(Cl)c(-c3ccc(N4CCOCC4)cc3)cc2C1=C(O)c1cccc(O)c1 [Compound 3, 6-Chloro-3-[1-hydroxy-1-(3-hydroxy-phenyl)-methylidene]-5-(4-morpholin-4-yl-phenyl)-1,3-dihydro-indol-2-one] | 6.72 |  | 138 |
| Cc1cc(C(O)=C2C(=O)Nc3cc(Cl)c(-c4ccc(-c5csc(N)n5)cc4)cc32)on1 [Compound 37, 5-[4-(2-Amino-thiazol-4-yl)-phenyl]-6-chloro-3-[1-hydroxy-1-(3-methyl-isoxazol-5-yl)-methylidene]-1,3-dihydro-indol-2-one] | 7.43 |  | 192 |
| O=C1Nc2cc(Cl)c(-c3ccc(N4CCOCC4)cc3)cc2C1=C(O)c1ccno1 [Compound 59, 6-Chloro-3-[1-hydroxy-1-isoxazol-5-yl-methylidene]-5-(4-morpholin-4-yl-phenyl)-1,3-dihydro-indol-2-one] | 7.54 |  | 245 |
| O=C1Nc2cc(Cl)c(-c3ccc(N4CCOCC4)cc3)cc2C1=C(O)c1cc(Br)no1 [Compound 41, 3-[1-(3-Bromo-isoxazol-5-yl)-1-hydroxy-methylidene]-6-chloro-5-(4-morpholin-4-yl-phenyl)-1,3-dihydro-indol-2-one] | 8.52 |  | 115 |
| Cc1nc(C)c(C(O)=C2C(=O)Nc3cc(Cl)c(-c4ccc(N5CCOCC5)cc4)cc32)s1 [Compound 15, 6-Chloro-3-[1-(2,4-dimethyl-thiazol-5-yl)-1-hydroxy-methylidene]-5-(4-morpholin-4-yl-phenyl)-1,3-dihydro-indol-2-one] | 7.57 |  | 257 |
| O=C1Nc2cc(Cl)c(-c3ccc(C4CC(O)C4)cc3)cc2C1=C(O)c1ccccc1F (stereo not drawn) [Compound 171, 6-chloro-3-[(2-fluorophenyl)hydroxy-methylene]-5-[4-(3-hydroxycyclobutyl)phenyl]indolin-2-one] | 8.22 |  | 197 |
| CN(C)c1ccc(-c2cc3c(cc2Cl)NC(=O)C3=C(O)c2cccc(C(=O)O)c2)cc1 [Compound 8, 3-{[6-Chloro-5-(4-dimethylamino-phenyl)-2-oxo-1,2-dihydro-indolylidene]-hydroxy-methyl}-benzoic acid] | 7.48 |  | 124 |
| Cc1cc(C(O)=C2C(=O)Nc3cc(Cl)c(-c4ccc(F)cc4O)cc32)on1 [Compound 56, 6-Chloro-5-(4-fluoro-2-hydroxy-phenyl)-3-[1-hydroxy-1-(3-methyl-isoxazol-5-yl)-methylidene]-1,3-dihydro-indol-2-one] | 6.82 |  | 189 |
| O=C1Nc2cc(Cl)c(-c3ccc(N4CCOCC4)cc3)cc2C1=C(O)c1cc(C2CC2)no1 [Compound 87, 6-chloro-3-[(3-cyclopropylisoxazol-5-yl)hydroxy-methylene]-5-(4-morpholinophenyl)indolin-2-one] | 9.30 and 9.22 |  |  |
| Cc1nocc1C(O)=C1C(=O)Nc2cc(Cl)c(-c3ccc(N4CCOCC4)cc3)cc21 [Compound 60, 6-Chloro-3-[1-hydroxy-1-(3-methyl-isoxazol-4-yl)-methylidene]-5-(4-morpholin-4-yl-phenyl)-1,3-dihydro-indol-2-one] | 6.11 |  | 298 |
| Cc1cc(C(O)=C2C(=O)Nc3cc(Cl)c(-c4ccc(O)c(F)c4)cc32)on1 [Compound 44, 6-Chloro-5-(3-fluoro-4-hydroxy-phenyl)-3-[1-hydroxy-1-(3-methyl-isoxazol-5-yl)-methylidene]-1,3-dihydro-indol-2-one] | 6.33 |  | 165 |
| COc1cc(C(O)=C2C(=O)Nc3cc(Cl)c(-c4ccc(C5CC(OC)C5)cc4)cc32)on1 (stereo not drawn) [Compound 165, 6-chloro-3-[hydroxy-(3-methoxyisoxazol-5-yl)methylene]-5-[4-(3-methoxycyclobutyl)phenyl]indolin-2-one] | 7.74 |  | 218 |

The next lines start with the values.

| pEC50 | α2β1γ2 AMPK Emax [1] | Emax [1] [%] | Compound |
| --- | --- | --- | --- |
| 7.68 | (124 +/− 11) % |  | Cc1cc(C(O)=C2C(=O)Nc3cc(Cl)c(-c4ccc(N(C)C)cc4)cc32)on1 [Compound 1, 6-Chloro-5-(4-dimethylamino-phenyl)-3-[1-hydroxy-1-(3-methyl-isoxazol-5-yl)-methylidene]-1,3-dihydro-indol-2-one] |
| 9.22 |  | 133 | O=C1Nc2cc(F)c(-c3ccc(C4(CO)CC4)cc3)cc2C1=C(O)c1cc(C2CC2)no1 [Compound 119, 3-[(3-cyclopropylisoxazol-5-yl)hydroxy-methylene]6-fluoro-5-[4-[1-(hydroxymethyl)cyclopropyl]phenyl]indolin-2-one] |
| 9.52 |  | 295 | O=C1Nc2cc(Cl)c(-c3ccc(C4(CO)CC4)cc3)cc2C1=C(O)c1ccco1 [Compound 126, 6-chloro-3-[2-furyl(hydroxy)methylene]-5-[4-[1-(hydroxymethyl)cyclopropyl]phenyl]indolin-2-one] |
| 7.05 |  | 127 | Cc1ncc(C(O)=C2C(=O)Nc3cc(Cl)c(-c4ccc(N(C)C)cc4)cc32)s1 [Compound 10, 6-Chloro-5-(4-dimethylamino-phenyl)-3-[1-hydroxy-1-(2-methyl-thiazol-5-yl)-methylidene]-1,3-dihydro-indol-2-one] |
| 10.00 |  | 155 | O=C1Nc2cc(Cl)c(-c3ccc(C4(CO)CC4)cc3)cc2C1=C(O)c1cc(C2CC2)no1 [Compound 106, 6-chloro-3-[(3-cyclopropylisoxazol-5-yl)hydroxy-methylene]-5-[4-[1-(hydroxymethyl)cyclopropyl]phenyl]indolin-2-one] |
| 9.22 |  | 141 | O=C1Nc2cc(Cl)c(-c3ccc(C4(CO)CC4)cc3)cc2C1=C(O)c1cc2cccnc2o1 [Compound 157, 6-chloro-3-[furo[2,3-b]pyridin-2-yl(hydroxy)methylene]-5-[4-[1-(hydroxymethyl)cyclopropyl]phenyl]indolin-2-one] |
| 8.52 |  | 158 | Cc1cc(C(O)=C2C(=O)Nc3cc(Cl)c(-c4ccc(C5(CO)CC5)cc4)cc32)sn1 [Compound 23, 6-Chloro-5-[4-(1-hydroxymethyl-cyclopropyl)-phenyl]-3-[1-hydroxy-1-(3-methyl-isothiazol-5-yl)-methylidene]-1,3-dihydro-indol-2-one] |
| 8.22 |  | 95 | O=C1Nc2cc(Cl)c(-c3ccc(C4(CO)CC4)cc3)cc2C1=C(O)c1ccccc1F [Compound 46, 6-Chloro-3-[1-(2-fluoro-phenyl)-1-hydroxy-methylidene]-5-[4-(1-hydroxymethyl-cyclopropyl)-phenyl]-1,3-dihydro-indol-2-one] |
| 9.40 |  | 272 | Cc1ccc(C(O)=C2C(=O)Nc3cc(Cl)c(-c4ccc(C5(CO)CC5)cc4)cc32)s1 [Compound 123, 6-chloro-5-[4-[1-(hydroxymethyl)cyclopropyl]phenyl]-3-[hydroxy-(5-methyl-2-thienyl)methylene]indolin-2-one] |
| 8.22 |  | 148 | O=C1Nc2cc(Cl)c(-c3ccc(C4(CO)CC4)cc3)cc2C1=C(O)c1cc(Br)no1 [Compound 73, 3-[1-(3-Bromo-isoxazol-5-yl)-1-hydroxy-methylidene]-6-chloro-5-[4-(1-hydroxymethyl-cyclopropyl)phenyl]-1,3-dihydro-indol-2-one] |
| 8.22 |  | 181 | O=C1Nc2cc(Cl)c(-c3ccc(C4(CO)CC4)cc3)cc2C1=C(O)c1cc2cc(Cl)ccc2o1 [Compound 170, 6-chloro-3-[(5-chlorobenzofuran-2-yl)hydroxy-methylene]-5-[4-[1-(hydroxymethyl)cyclopropyl]phenyl]indolin-2-one] |
| 9.22 |  | 126 | O=C1Nc2cc(Cl)c(-c3ccc(C4(CO)CC4)cc3F)cc2C1=C(O)c1cc(C2CC2)no1 [Compound 113, 6-chloro-3-[(3-cyclopropylisoxazol-5-yl)hydroxy-methylene]-5-[2-fluoro-4-[1-(hydroxymethyl)cyclopropyl]phenyl]indolin-2-one] |
